Calls of active or inactive are those of the source.
Legend:
[1] = target: T1, Corticotropin-releasing factor receptor 2/Corticotropin-releasing factor-binding protein (Homo sapiens, UniProt P24387+Q13324); assay: Dose Response confirmation of uHTS hits for small molecule antagonists of the CRF-binding protein and CRF-R2 receptor complex.; assay type: functional; conditions: read-out: IC50_Mean
T1 sequence (Q13324 whole entry): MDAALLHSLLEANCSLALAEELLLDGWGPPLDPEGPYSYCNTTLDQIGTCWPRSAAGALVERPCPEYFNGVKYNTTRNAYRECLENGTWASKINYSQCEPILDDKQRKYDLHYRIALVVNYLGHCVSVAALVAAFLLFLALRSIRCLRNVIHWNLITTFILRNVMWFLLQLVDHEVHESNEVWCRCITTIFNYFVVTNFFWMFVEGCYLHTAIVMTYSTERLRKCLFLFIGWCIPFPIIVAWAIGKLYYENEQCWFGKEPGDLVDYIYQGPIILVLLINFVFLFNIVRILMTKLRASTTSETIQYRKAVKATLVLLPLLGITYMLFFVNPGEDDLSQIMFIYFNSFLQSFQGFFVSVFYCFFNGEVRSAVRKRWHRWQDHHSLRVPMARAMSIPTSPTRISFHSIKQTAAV
T1 sequence (P24387 whole entry): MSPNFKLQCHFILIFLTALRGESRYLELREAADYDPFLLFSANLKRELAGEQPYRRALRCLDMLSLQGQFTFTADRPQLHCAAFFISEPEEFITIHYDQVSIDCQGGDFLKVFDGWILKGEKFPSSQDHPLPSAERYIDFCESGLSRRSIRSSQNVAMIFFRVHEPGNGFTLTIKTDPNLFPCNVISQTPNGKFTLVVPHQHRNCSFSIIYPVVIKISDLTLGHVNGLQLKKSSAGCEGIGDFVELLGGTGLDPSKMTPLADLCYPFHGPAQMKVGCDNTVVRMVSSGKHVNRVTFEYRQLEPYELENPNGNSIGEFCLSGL

[2] = target: T1, Corticotropin-releasing factor receptor 2/Corticotropin-releasing factor-binding protein; assay: activators of CRF receptor 2 with binding protein – uHTS hits, confirmation (AID 602473); assay type: functional; conditions: read-out: EC50_Mean
[3] = Luminescence Cell-Based Dose Retest to Confirm Inhibitors of Cancer Stem Cells. [Related pubchem assays (depositor defined):AID2717, AID2721]; assay type: functional; conditions: Homo sapiens
[4] = CRF-BP/CRF-R2 complex antagonists, dose response, cell-based, uHTS hits, 384-well (AID 651639); assay type: functional, Homo sapiens; conditions: read-out: IC50_Mean
[5] = AlphaScreen signal interference compounds, dose response, artefact control for ARNT-TACC3 interaction inhibitor project, biochemical, luminescence, cherry-pick (AID 651705); assay type: functional;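 further: AlphaScreen bead proximity signal that flags compounds interfering with the detection technology; potency reflects signal decrease which marks the compound as an assay artifact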
[6] = microbe, parasite or virus in culture; assay type: functional; conditions: Mycobacterium tuberculosis
Beta-galactosidase = Beta-galactosidase (Escherichia coli, UniProt Q8VNN2); assay: Dose response counterscreen for EBI2 assay utilizing the enzyme, b-galactosidase.; assay type: functional
Sequence of Beta-galactosidase (Q8VNN2 whole entry): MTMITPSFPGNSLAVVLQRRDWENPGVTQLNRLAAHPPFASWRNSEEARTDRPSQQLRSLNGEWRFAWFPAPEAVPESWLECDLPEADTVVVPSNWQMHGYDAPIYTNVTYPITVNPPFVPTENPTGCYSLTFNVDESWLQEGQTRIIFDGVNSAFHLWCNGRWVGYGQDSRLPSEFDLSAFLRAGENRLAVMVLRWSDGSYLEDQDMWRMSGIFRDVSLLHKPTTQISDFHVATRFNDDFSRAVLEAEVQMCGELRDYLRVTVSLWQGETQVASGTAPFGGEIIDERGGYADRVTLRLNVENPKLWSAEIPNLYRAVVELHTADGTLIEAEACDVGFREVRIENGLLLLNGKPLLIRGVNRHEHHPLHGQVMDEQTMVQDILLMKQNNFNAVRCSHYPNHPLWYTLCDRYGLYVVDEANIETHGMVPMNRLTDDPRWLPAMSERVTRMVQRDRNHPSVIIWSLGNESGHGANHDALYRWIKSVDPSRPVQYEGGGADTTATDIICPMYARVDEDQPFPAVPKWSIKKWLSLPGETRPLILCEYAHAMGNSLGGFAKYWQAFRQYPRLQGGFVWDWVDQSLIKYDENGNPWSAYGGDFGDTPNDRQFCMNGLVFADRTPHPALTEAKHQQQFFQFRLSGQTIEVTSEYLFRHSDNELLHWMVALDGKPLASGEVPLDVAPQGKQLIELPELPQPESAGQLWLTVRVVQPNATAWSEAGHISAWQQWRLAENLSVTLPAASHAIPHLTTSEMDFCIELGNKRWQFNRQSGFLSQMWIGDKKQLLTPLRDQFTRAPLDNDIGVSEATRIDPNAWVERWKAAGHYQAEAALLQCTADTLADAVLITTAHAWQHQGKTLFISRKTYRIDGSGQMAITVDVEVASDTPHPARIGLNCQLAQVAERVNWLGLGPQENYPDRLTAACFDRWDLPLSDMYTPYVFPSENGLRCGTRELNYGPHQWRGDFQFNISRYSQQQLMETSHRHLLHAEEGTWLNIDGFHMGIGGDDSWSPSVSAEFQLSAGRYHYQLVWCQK

[7] = target: Ras and Rab interactor 1/Tyrosine-protein kinase ABL1 (Homo sapiens, UniProt P00519+Q13671); assay type: functional;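 further: biochemical TR-FRET dose-response test measuring inhibition of binding between Rin1 and Abl proteins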
Sequence of Ras and Rab interactor 1/Tyrosine-protein kinase ABL1 (P00519 whole entry): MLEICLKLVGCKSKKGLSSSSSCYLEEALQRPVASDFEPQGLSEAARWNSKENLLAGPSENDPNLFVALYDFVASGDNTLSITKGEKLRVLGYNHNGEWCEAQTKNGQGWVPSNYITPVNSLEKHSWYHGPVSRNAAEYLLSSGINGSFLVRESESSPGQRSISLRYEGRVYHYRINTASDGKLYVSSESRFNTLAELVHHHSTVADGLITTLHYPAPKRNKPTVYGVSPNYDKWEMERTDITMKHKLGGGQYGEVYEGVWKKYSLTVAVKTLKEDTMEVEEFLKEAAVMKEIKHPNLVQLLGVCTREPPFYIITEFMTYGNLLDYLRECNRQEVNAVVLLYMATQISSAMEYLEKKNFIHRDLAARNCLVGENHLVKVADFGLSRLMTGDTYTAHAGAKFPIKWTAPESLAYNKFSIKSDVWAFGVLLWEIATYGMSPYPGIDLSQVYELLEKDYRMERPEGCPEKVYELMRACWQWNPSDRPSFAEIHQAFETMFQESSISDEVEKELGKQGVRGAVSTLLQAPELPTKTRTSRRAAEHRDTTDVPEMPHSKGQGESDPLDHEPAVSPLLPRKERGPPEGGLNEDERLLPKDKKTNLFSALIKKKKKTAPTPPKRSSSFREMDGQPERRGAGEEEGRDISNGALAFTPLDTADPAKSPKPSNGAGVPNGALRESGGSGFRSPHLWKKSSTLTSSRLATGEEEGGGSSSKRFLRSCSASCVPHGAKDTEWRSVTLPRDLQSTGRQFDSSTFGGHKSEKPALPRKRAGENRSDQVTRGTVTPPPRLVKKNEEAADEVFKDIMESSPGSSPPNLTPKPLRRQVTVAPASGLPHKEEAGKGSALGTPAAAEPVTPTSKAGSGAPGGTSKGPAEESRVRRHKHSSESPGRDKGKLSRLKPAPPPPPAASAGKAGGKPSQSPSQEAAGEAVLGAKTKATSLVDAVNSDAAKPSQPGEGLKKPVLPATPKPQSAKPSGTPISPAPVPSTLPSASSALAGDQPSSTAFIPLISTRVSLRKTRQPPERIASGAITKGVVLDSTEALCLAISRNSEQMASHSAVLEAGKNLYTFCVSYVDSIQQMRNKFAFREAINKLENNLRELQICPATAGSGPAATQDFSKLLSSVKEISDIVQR
Sequence of Ras and Rab interactor 1/Tyrosine-protein kinase ABL1 (Q13671 whole entry): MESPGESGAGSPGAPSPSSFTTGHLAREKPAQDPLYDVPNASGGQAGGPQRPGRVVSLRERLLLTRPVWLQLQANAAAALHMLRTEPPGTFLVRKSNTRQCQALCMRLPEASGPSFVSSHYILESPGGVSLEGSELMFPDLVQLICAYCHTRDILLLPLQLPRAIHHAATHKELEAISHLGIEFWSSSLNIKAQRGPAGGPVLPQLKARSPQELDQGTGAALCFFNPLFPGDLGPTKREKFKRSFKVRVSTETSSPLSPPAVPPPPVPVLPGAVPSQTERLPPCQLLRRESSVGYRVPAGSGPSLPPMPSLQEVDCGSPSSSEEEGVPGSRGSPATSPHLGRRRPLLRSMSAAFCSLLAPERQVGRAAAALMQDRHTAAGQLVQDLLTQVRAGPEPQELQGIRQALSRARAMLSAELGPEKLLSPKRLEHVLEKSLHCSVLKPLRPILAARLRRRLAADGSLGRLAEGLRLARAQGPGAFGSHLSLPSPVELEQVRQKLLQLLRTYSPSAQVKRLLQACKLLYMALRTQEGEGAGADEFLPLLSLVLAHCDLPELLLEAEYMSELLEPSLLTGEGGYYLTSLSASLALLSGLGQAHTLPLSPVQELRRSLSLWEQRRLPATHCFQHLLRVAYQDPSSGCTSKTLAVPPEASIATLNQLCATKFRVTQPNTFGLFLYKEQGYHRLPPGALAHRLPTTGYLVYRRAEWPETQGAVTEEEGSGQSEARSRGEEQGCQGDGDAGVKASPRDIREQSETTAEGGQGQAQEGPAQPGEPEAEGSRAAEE

INS1 = assay: beta cell apoptosis inhibitors, cytokine rescue, dose response, luminescence, retest (AID 449756); assay type: functional, cell-based; conditions: Rattus norvegicus;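 further: cell death triggered by IL-1 beta plus TNF-alpha plus IFN-gamma mixture; protective hits raise ATP signal compared with cytokine alone wells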
Protein Wnt-3a = Protein Wnt-3a (Mus musculus, UniProt P27467); assay: Wnt3a-driven reporter signaling inhibition, dose response, selectivity assay for Gli-SUFU antagonist project, Wnt-LIGHT cells, luminescence (AID 651570); assay type: functional; conditions: read-out: IC50_Mean;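 further: Wnt-LIGHT reporter cells stimulated with conditioned medium from Wnt3a-producing cells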
Sequence of Protein Wnt-3a (P27467 whole entry): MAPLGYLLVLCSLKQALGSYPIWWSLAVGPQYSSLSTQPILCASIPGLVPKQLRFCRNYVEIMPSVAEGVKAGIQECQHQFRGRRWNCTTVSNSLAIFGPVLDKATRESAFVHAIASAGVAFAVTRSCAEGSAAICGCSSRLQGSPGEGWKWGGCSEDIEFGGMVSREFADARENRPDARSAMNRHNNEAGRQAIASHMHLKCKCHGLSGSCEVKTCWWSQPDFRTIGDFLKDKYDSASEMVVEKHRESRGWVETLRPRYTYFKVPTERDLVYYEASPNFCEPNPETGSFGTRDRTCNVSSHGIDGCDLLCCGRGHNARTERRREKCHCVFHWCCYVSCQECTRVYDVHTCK

BJ [8] = assay: cells; assay type: functional, cell-based; conditions: Homo sapiens
[9] = cytotoxicity toward DRD oncogenic fibroblasts, dose response, cell-based, non-viral oncogenic, luminescence (AID 1934); assay type: functional; conditions: Homo sapiens
BJ [10] = assay: cytotoxicity toward BJ-TERT-LT-ST fibroblasts, dose response, cell-based, RAS-independent, luminescence (AID 1935); assay type: functional; conditions: Homo sapiens;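 further: BJ fibroblasts immortalized with TERT plus LT and ST oncogenes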
BJ [11] = assay: cytotoxicity toward BJ-TERT fibroblasts, dose response, cell-based, RAS-independent, luminescence (AID 1933); assay type: functional; conditions: Homo sapiens
[12] = HEp-2 cell cytotoxicity, dose response, cytotoxicity control for RSV inhibitor project, HTS (AID 2410); assay type: functional; conditions: human respiratory syncytial virus
Vero [13] = assay: cells; assay type: functional, cell-based; conditions: Chlorocebus sabaeus
[14] = Luminescence Cell-Based Dose Response HTS to Identify Inhibitors of 5'UTR Stem-Loop Driven Prion Protein mRNA Translation in H4 Neuroglioblastoma Cells. [Related pubchem assays: 1827 (Project Summary), 1813 (Primary HTS)]; assay type: functional
[15] = inhibitors of SNCA 5'UTR-driven reporter translation, confirmation, H4 neuroglioma cells, luminescence (AID 1988); assay type: functional, cell-based
[16] = HepG2 cell cytotoxicity, dose response, cytotoxicity control for Shn3 inhibitor project, CellTiter-Glo, cherry-picked (AID 624134); assay type: functional, cell-based
[17] = control 3'UTR Renilla luciferase suppression, dose response, counter-screen for Shn3 inhibitor project, cell-based, Clone20-Shn3RL, cherry-picked (AID 624133); assay type: functional
[18] = Shn3 3'UTR reporter inhibitors, dose response, cell-based, Clone20 osteoblasts, firefly luciferase, cherry-picked (AID 624132); assay type: functional;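 further: firefly luciferase luminescence from reporter carrying the Shn3 3'UTR in osteoblasts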
Vero [19] = assay: cells; assay type: functional; conditions: Chlorocebus sabaeus

Cc1cc(C)nc(SCc2ccc(C(=O)NNC(=O)Nc3cccc(Cl)c3)cc2)n1
IC50 [1]: 5.95 µM (active)
EC50 [2]: > 53 µM (inactive)
AC50 [3]: 3.65 µM (active)
IC50 [4]: 11.6 µM (active)

c1ccc(-c2n[nH]c(-c3ccccn3)n2)cc1
AC50 [5]: 116 µM (active)
CC50 [6]: > 40 µM (active)

CSc1ccc(CN2CCN(C(=O)COc3ccc(C)cc3)CC2)cc1
IC50 (Beta-galactosidase): > 80 µM (inactive)

CCOCc1nnc(NC(=O)c2c(OC)cccc2OC)s1
IC50 [7]: 18 µM (inactive)

COc1ccc(-[n+]2cc(-c3ccc(OC(F)F)cc3)n3c2CCCCC3)cc1
AC50 (INS1): 2.14 µM (active)
IC50 (Protein Wnt-3a): 12.3 µM (active)

O=c1[nH]c(=O)n(-c2ccc(F)cc2)c2c1C(C(F)(F)F)(C(F)(F)F)NC(c1ccc(F)cc1)=N2
EC50 (BJ [8]): 66.7 µM (inconclusive)
EC50 [9]: 25.7 µM (active)
AC50 (INS1): 5.15 µM (active)
EC50 (BJ [10]): > 150 µM (not active)
IC50 [4]: 13.2 µM (active)
EC50 (BJ [11]): > 150 µM (not active)

Cc1cc(C(=O)Cn2nnc3ccccc3c2=O)c(C)n1-c1ccccc1F
IC50 (cells): 30.9 µM (active)
CC50 [12]: 20.4 µM (active)
IC50 (Vero [13]): 6.16 µM (active)
EC50 [14]: 10.1 µM (active)
EC50 [15]: 9.28 µM (active)

Cc1cc(C)c(C(N)=O)c(SCC(=O)c2cc(C)n(-c3cc(C)on3)c2C)n1
AC50 [16]: 1.68 µM (active)
AC50 [17]: 0.332 µM (active)
AC50 [18]: 0.942 µM (active)
IC50 (Protein Wnt-3a): 1.8 µM (active)

O=C(Nc1ccccc1SCC1CSc2nc3ccccc3c(=O)n21)c1cccc(Cl)c1 (centres undefined)
IC50 (cells): 10.3 µM (active)
CC50 [12]: 24.7 µM (active)
IC50 (Vero [13]): 14.9 µM (active)
CC50 (Vero [19]): > 25 µM (active)

— ChEMBL document CHEMBL1201862, “PubChem BioAssay data set” (2004)
